Columns and labels:
cMET = cMET (Homo sapiens, UniProt P08581); experiment: Evaluation of inhibitory activity against MET (TR-FRET kinase assay); assay type: biochemical; conditions: cMET protein, TK peptide substrate
Protocol: In addition, in order to measure the enzyme activity inhibition for cMET, the evaluation was performed in the same manner as the enzyme activity inhibition measurement experiment for RON.
(§1) Specifically, the compound was prepared to a concentration of 1 mM in 100% DMSO and was diluted 10 times in a stepwise manner through 3-fold dilution. The compound (2 ul) diluted in a stepwise manner was added to a 96-well-plate containing 48 ul of a 1× kinase reaction buffer (50 mM HEPES (pH 7.4), 0.05% BSA, 0.005% Tween-20, 1 mM DTT, 0.5 mM MnCl2, 20 mM MgCl2).
The cMET protein was diluted to a concentration of 263 nM in a cMET storage buffer (50 mM Tris-HCl (pH 7.5), 150 mM NaCl, 0.05% Brij35, 1 mM DTT, 10% Glycerol), and then diluted again to a concentration of 2 nM in a 1× kinase reaction buffer. As a substrate cocktail, a MET-specific substrate mixed solution (5 uM TK peptide, 10 mM ATP) was prepared at a concentration 2 times the final reaction concentration.
(§2) Thereafter, a 384-well-plate was prepared, and 2.5 μl of each of the diluted compounds of Examples was added to a corresponding well of experimental group wells, and 2.5 μl of a 4% DMSO solution was dispensed into high control wells and low control wells.
(§3) Thereafter, 2.5 μL of 2 nM cMET was dispensed into each of the high control wells and the experimental group wells, and 2.5 μL of the 1×kinase reaction buffer was added to the low control wells, and all the wells were centrifuged at room temperature for 40 seconds at 1,000 RPM, and then incubated at room temperature for 20-30 minutes. Then, 5 uL of the substrate cocktail (2×) was dispensed into each well, and all the wells were centrifuged at room temperature for 40 seconds at 1,000 RPM, and then incubated at room temperature for 60 minutes. Thereafter, 5 uL of 90 mM EDTA was added to each well to terminate the reaction, and all the wells were then incubated again at room temperature for 5 minutes. Thereafter, 5 uL of a 4× phosphotyrosine antibody (Perkin Elmer) containing europium was added to each well, and all the wells were then incubated at room temperature for 60 minutes. After the incubation, the 384-well-plate was read with the Vison plate reader. In this case, the excitation wavelength was 340 nm, and the emission wavelength was 620 nm and 665 nm. The IC50 value of each compound of Examples was derived using the GraphPd Prism7 program.

RON = RON (Homo sapiens, UniProt Q04912); experiment: Evaluation of inhibitory activity against RON (TR-FRET kinase assay); assay type: biochemical; conditions: RON protein, ULight-labeled Poly GT substrate
Protocol: In order to measure the inhibitory activity of each of the compounds of Examples against RON, the IC50 of each of the compounds was measured using Time-resolved fluorescence energy transfer (TR-FRET).
as §1, with “7.4), 0.01%” for “7.4), 0.05% BSA, 0.005%”, “Tween-20, 5” for “Tween-20, 1”, “mM Na3VO4, 2 mM EGTA, 10” for “mM MnCl2, 20”
The RON protein was diluted to a concentration of 49.3 nM in a RON storage buffer (50 mM Tris-HCl (pH 7.5), 150 mM NaCl, 0.5 mM EDTA, 0.02% Triton X-100), and then diluted again to a concentration of 0.4 nM in a 1×kinase reaction buffer. As a substrate cocktail, a RON-specific substrate mixed solution (40 uM ULight-labeled Poly GT, 100 nM ATP) was prepared at a concentration 2 times the final reaction concentration.
as §2
as §3, with “of 0.4” for “of 2”, “nM RON” for “nM cMET”, “the 1× kinase” for “the 1×kinase”, “of 30” for “of 90”

Sequence of RON (Q04912 25-1400, species assumed): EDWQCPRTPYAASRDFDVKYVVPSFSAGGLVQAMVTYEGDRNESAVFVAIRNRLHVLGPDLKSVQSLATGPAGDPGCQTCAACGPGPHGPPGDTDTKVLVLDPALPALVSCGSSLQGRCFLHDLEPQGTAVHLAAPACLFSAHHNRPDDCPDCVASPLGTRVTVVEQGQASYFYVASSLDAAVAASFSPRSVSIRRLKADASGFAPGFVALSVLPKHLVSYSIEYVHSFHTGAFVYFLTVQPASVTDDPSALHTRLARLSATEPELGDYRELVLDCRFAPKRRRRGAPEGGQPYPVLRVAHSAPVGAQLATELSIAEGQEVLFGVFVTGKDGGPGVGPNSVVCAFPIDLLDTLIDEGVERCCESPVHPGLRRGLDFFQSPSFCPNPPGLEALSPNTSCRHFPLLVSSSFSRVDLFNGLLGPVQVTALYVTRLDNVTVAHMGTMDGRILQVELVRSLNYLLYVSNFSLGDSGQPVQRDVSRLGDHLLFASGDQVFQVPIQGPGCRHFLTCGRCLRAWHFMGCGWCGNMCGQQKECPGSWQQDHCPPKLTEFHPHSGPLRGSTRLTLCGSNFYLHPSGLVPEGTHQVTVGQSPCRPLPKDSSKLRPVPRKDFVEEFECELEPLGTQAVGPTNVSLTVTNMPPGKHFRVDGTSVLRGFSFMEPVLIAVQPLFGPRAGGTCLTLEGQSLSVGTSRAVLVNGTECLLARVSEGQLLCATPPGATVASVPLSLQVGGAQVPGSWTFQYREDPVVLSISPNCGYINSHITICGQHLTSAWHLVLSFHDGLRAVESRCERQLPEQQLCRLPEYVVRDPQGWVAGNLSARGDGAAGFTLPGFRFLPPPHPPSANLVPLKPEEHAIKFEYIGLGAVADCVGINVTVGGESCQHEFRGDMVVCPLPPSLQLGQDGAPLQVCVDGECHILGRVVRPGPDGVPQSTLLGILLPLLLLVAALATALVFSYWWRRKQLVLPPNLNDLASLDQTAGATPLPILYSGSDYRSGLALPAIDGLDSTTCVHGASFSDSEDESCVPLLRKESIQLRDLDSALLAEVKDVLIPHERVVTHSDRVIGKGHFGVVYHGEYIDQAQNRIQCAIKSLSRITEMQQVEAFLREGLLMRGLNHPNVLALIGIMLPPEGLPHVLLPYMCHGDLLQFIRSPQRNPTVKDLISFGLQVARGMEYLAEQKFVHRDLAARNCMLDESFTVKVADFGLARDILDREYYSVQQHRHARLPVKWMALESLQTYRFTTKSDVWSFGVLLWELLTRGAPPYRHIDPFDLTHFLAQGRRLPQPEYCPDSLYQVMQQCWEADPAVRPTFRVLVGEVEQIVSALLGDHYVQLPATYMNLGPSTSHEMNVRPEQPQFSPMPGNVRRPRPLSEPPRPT
Sequence of cMET (P08581 25-1390): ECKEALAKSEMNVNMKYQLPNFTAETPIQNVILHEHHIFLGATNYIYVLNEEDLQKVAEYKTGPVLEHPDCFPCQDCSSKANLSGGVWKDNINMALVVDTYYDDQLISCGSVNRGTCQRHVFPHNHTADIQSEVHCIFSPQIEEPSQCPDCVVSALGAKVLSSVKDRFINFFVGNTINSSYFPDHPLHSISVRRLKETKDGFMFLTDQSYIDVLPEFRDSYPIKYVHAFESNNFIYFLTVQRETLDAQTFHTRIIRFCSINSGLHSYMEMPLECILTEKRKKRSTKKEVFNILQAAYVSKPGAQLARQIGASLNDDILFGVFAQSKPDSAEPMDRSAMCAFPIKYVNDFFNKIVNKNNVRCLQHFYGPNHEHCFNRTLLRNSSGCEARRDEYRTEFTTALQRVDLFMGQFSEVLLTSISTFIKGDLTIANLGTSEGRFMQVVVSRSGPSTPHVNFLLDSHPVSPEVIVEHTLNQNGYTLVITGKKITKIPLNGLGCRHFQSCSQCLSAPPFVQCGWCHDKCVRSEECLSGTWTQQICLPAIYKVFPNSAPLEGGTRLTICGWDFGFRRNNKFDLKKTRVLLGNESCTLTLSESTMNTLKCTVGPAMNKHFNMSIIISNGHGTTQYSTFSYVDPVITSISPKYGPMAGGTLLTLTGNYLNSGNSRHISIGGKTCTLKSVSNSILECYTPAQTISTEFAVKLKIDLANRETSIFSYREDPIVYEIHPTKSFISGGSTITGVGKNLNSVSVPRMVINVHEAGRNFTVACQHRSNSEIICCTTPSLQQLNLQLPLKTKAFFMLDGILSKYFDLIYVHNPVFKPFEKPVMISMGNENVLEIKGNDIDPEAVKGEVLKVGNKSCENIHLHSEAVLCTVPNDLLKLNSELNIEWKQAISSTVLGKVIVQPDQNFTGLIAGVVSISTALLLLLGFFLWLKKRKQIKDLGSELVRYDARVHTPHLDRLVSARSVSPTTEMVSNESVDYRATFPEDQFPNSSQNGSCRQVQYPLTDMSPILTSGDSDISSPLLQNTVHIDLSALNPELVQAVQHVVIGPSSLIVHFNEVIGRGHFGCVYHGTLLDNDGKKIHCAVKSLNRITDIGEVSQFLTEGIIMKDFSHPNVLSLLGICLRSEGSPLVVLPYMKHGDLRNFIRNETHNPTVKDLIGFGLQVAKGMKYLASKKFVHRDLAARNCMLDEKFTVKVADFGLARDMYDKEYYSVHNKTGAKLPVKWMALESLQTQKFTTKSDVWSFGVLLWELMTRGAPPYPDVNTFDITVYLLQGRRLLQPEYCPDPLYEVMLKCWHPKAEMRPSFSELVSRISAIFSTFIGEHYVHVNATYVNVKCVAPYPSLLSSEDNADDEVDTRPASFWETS

| Compound | IC50 (cMET) [µM] | IC50 (RON) [µM] |
| --- | --- | --- |
| Cc1ccc(-n2ncc(C(=O)Nc3ccc(Oc4ncnc(N)c4Cl)c(F)c3)c2C(F)(F)F)cc1 [Example 49] | > 5 | > 5 |
| Nc1ncnc(Oc2ccc(NC(=O)c3cnn(C4CCCOC4)c3C(F)(F)F)cc2F)c1Cl (stereo not drawn) [Example 50] | > 5 | 0.5 to 5 |
| Nc1ncnc(Oc2ccc(NC(=O)c3cnn(C4CCCCC4)c3C(F)(F)F)cc2F)c1Cl [Example 51] | > 5 | 0.05 to 0.5 |
| Nc1ncnc(Oc2ccc(NC(=O)c3cnn(-c4ccccc4F)c3C(F)(F)F)cc2F)c1Cl [Example 52, N-[4-(6-amino-5-chloro-pyrimidin-4-yl)oxy-3-fluorophenyl]-1-(2-fluorophenyl)-5-(trifluoromethyl)pyrazole-4-carboxamide] | 0.5 to 5 | 0.05 to 0.5 |
| Nc1ncnc(Oc2ccc(NC(=O)c3ccn(-c4ccccc4)n3)cc2F)c1Cl [Example 53, N-[4-(6-amino-5-chloro-pyrimidin-4-yl)oxy-3-fluorophenyl]-1-phenyl-pyrazole-3-carboxamide] | > 5 | 0.5 to 5 |
| Nc1ncnc(Oc2ccc(NC(=O)c3cn(-c4ccccc4)nn3)cc2F)c1Cl [Example 54, N-[4-(6-amino-5-chloro-pyrimidin-4-yl)oxy-3-fluorophenyl]-1-phenyl-triazole-4-carboxamide] | > 5 | > 5 |
| Cc1c(C(=O)Nc2ccc(Oc3ncnc(N)c3Cl)c(F)c2)nnn1-c1ccccc1 [Example 55, N-[4-(6-amino-5-chloro-pyrimidin-4-yl)oxy-3-fluorophenyl]-5-methyl-1-phenyl-triazole-4-carboxamide] | > 5 | > 5 |
| Cc1c(C(=O)Nc2ccc(Oc3ncnc(N)c3Cl)c(F)c2)nnn1-c1ccccc1F [Example 56, N-[4-(6-amino-5-chloro-pyrimidin-4-yl)oxy-3-fluorophenyl]-1-(2-fluorophenyl)-5-methyl-triazole-4-carboxamide] | > 5 | 0.05 to 0.5 |
| Nc1ncnc(Oc2ccc(NC(=O)c3cnn(-c4ccccc4)c3)cc2F)c1Cl [Example 57, N-(4-((6-amino-5-chloro-pyrimidin-4-yl)oxy)-3-fluorophenyl)-1-phenyl-1H-pyrazole-4-carboxamide] | > 5 | > 5 |
| CC(C)(C)n1ncc(C(=O)Nc2ccc(Oc3ncnc(N)c3Cl)c(F)c2)c1C(F)(F)F [Example 58, N-[4-(6-amino-5-chloro-pyrimidin-4-yl)oxy-3-fluorophenyl]-1-tert-butyl-5-(trifluoromethyl)pyrazole-4-carboxamide] | > 5 | 0.5 to 5 |
| Nc1ncnc(Oc2ccc(NC(=O)c3cnn(-c4ccccc4)c3-c3ccccc3)cc2F)c1Cl [Example 59, N-[4-(6-amino-5-chloro-pyrimidin-4-yl)oxy-3-fluorophenyl]-1,5-diphenyl-pyrazole-4-carboxamide] | 0.5 to 5 | 0.05 to 0.5 |
| CN1CCCC(n2ncc(C(=O)Nc3ccc(Oc4ncnc(N)c4Cl)c(F)c3)c2C(F)(F)F)C1 (stereo not drawn) [Example 60, N-[4-(6-amino-5-chloro-pyrimidin-4-yl)oxy-3-fluorophenyl]-1-(1-methyl-3-piperidyl)-5-(trifluoromethyl)pyrazole-4-carboxamide] | > 5 | 0.5 to 5 |
| Cc1nc(-c2ccccc2)sc1C(=O)Nc1ccc(Oc2ncnc(N)c2Cl)c(F)c1 [Example 61, N-[4-(6-amino-5-chloro-pyrimidin-4-yl)oxy-3-fluorophenyl]-4-methyl-2-phenyl-thiazole-5-carboxamide] | > 5 | 0.5 to 5 |
| O=C(Nc1ccc(Oc2ncnc(NC3CC3)c2Cl)c(F)c1)c1cnn(-c2ccccc2)c1C(F)(F)F [Example 62, N-(4-((5-chloro-6-(cyclopropylamino)pyrimidin-4-yl)oxy)-3-fluorophenyl)-1-phenyl-5-(trifluoromethyl)-1H-pyrazole-4-carboxamide] | > 5 | > 5 |
| Nc1ncnc(Oc2ccc(NC(=O)c3ncn(-c4ccccc4)c3C(F)(F)F)cc2F)c1Cl [Example 63, N-[4-(6-amino-5-chloro-pyrimidin-4-yl)oxy-3-fluorophenyl]-1-phenyl-5-(trifluoromethyl)imidazole-4-carboxamide] | > 5 | 0.05 to 0.5 |

— patent US20240316017A1, “NOVEL PYRIDINE DERIVATIVE COMPOUND AS RON INHIBITOR” (LG CHEM, LTD., priority 2021, published 2024)
